Measured values reported in ChEMBL document CHEMBL3992527, “Design and Synthesis of Novel Nonsteroidal Anti-Inflammatory Drugs and Carbonic Anhydrase Inhibitors Hybrids (NSAIDs-CAIs) for the Treatment of Rheumatoid Arthritis” (J Med Chem, 2017).
Calls of active or inactive are those of the source.

What was measured:
Carbonic anhydrase 1 = Carbonic anhydrase 1 (Homo sapiens, UniProt P00915); assay: Inhibition of recombinant human CA1 preincubated for 15 mins by stopped-flow CO2 hydration assay
Carbonic anhydrase 2 = Carbonic anhydrase 2 (Homo sapiens, UniProt P00918); assay: Inhibition of recombinant human CA2 preincubated for 15 mins by stopped-flow CO2 hydration assay
Carbonic anhydrase 7 = Carbonic anhydrase 7 (Homo sapiens, UniProt P43166); assay: Inhibition of recombinant human CA7 preincubated for 15 mins by stopped-flow CO2 hydration assay
Carbonic anhydrase 7, sequence (P43166 whole entry): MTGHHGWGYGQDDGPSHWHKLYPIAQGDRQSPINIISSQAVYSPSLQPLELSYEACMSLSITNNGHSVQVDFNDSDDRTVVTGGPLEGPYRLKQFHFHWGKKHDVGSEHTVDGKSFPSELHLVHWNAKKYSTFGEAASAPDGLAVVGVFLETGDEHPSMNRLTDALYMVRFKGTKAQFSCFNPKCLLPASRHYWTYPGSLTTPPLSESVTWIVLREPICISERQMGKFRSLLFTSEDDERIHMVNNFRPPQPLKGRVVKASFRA

Carbonic anhydrase 9 = Carbonic anhydrase 9 (Homo sapiens, UniProt Q16790)
Description: Inhibition of recombinant human CA9 catalytic domain preincubated for 15 mins by stopped-flow CO2 hydration assay

Carbonic anhydrase 12 = Carbonic anhydrase 12 (Homo sapiens, UniProt O43570); assay: Inhibition of recombinant human CA12 preincubated for 15 mins by stopped-flow CO2 hydration assay
Carbonic anhydrase 12, sequence (O43570 whole entry): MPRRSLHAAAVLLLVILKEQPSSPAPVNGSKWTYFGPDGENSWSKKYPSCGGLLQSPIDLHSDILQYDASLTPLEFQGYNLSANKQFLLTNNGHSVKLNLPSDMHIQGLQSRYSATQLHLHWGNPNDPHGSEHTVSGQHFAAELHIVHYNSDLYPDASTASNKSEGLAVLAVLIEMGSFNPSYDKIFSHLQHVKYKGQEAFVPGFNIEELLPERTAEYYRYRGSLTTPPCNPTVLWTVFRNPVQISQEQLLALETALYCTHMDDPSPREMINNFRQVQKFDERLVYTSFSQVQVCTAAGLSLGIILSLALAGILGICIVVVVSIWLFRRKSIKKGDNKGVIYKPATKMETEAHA

Carbonic anhydrase 4 = Carbonic anhydrase 4 (Homo sapiens, UniProt P22748)
Carbonic anhydrase 4, sequence (P22748 whole entry): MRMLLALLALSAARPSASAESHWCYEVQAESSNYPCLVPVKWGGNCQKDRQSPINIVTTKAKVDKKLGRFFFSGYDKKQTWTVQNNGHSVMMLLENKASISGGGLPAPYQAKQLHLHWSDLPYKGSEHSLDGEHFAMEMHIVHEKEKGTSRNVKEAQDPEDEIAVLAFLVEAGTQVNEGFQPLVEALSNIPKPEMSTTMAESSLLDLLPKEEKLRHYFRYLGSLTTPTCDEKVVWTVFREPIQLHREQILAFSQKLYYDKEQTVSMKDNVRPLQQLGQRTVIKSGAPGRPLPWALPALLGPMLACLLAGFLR
Description: Inhibition of recombinant human CA4 preincubated for 15 mins by stopped-flow CO2 hydration assay

Rattus norvegicus [1] = assay: Effect on normal pain sensitivity in complete Freund's adjuvant-induced Sprague-Dawley rat rheumatoid arthritis model assessed as change in contralateral paw withdrawal threshold at 10 mg/kg, po administered once on day 14 post complete Freund's adjuvant challenge measured after 15 to 75 mins by analgesimetry; format: ADME, organism-based; details: in vivo
Rattus norvegicus [2] = assay: (§1) Antihyperalgesic activity in complete Freund's adjuvant-induced Sprague-Dawley rat rheumatoid arthritis model assessed as increase in weight tolerance on ipsilateral paw at 10 mg/kg, po administered once on day 14 post complete Freund's adjuvant challenge measured after 15 to 75 mins post dose by analgesimetry; format: functional, organism-based
Rattus norvegicus [3] = assay: as §1, with “30” for “15”, “45” for “75”; format: functional, organism-based
Rattus norvegicus [4] = assay: (§2) Antihyperalgesic activity in complete Freund's adjuvant-induced Sprague-Dawley rat rheumatoid arthritis model assessed as improvement in postural imbalance by measuring difference between weight burdened on contralateral and ipsilateral paw at 10 mg/kg, po administered once on day 14 post complete Freund's adjuvant challenge measured after 15 to 30 mins by incapacitance test; format: functional, organism-based
Rattus norvegicus [5] = assay: as §1, with “45” for “15 to 75”; format: functional, organism-based
Rattus norvegicus [6] = assay: as §1, with “100” for “10”, “30” for “75”; format: functional, organism-based
Rattus norvegicus [7] = assay: as §2, with “100” for “10”; format: functional, organism-based
Rattus norvegicus [8] = assay: as §1, with “as” for “as increase in”, “at 30” for “after 15 to 75”, “analgesimetry (reference value: 47.6 +/- 1.2 g)” for “analgesimetry”; format: functional
Rattus norvegicus [9] = assay: as §1, with “as” for “as increase in”, “at 45” for “after 15 to 75”, “analgesimetry (reference value: 47.6 +/- 1.2 g)” for “analgesimetry”; format: functional
Rattus norvegicus [10] = assay: as §1, with “at” for “after 15 to”; format: functional, organism-based
Rattus norvegicus [11] = assay: Antihyperalgesic activity in complete Freund's adjuvant-induced Sprague-Dawley rat rheumatoid arthritis model assessed as improvement in postural imbalance by measuring difference between weight burdened on contralateral and ipsilateral paw at 10 mg/kg, po administered once on day 14 post complete Freund's adjuvant challenge measured at 30 mins post dose by incapacitance test (reference value: 45.6 +/- …; format: functional
Rattus norvegicus [12] = assay: Antihyperalgesic activity in complete Freund's adjuvant-induced Sprague-Dawley rat rheumatoid arthritis model assessed as improvement in postural imbalance by measuring difference between weight burdened on contralateral and ipsilateral paw at 10 mg/kg, po administered once on day 14 post complete Freund's adjuvant challenge measured at 45 mins post dose by incapacitance test (reference value: 45.6 +/- …; format: functional
Rattus norvegicus [13] = assay: as §2, with “at 60” for “after 15 to 30”, “mins post dose” for “mins”; format: functional, organism-based

Carbonic anhydrase 1, sequence (P00915 whole entry): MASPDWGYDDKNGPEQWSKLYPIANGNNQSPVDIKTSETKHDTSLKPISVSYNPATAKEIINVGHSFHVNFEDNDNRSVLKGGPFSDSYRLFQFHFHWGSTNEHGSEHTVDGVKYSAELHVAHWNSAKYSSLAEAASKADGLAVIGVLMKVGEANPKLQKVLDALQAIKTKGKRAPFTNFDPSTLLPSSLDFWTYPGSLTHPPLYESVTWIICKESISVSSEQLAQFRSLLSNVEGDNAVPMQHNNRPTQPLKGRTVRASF

| Ki (Carbonic anhydrase 1) | Ki (Carbonic anhydrase 2) | Ki (Carbonic anhydrase 7) | Ki (Carbonic anhydrase 9) | Ki (Carbonic anhydrase 12) | Structure (SMILES) | Activity (Rattus norvegicus [1]) | also measured |
| --- | --- | --- | --- | --- | --- | --- | --- |
| > 100 nM | > 100 nM | > 100 nM | 27.9 nM | – | CC1=C(CC(=O)NCCOc2ccc3ccc(=O)oc3c2)c2cc(F)ccc2/C1=C\c1ccc([S+](C)[O-])cc1 (stereo not given) | Non-Toxic | Activity (Rattus norvegicus [3]): Active; Activity (Rattus norvegicus [4]): Active |
| > 100 nM | > 100 nM | > 100 nM | 31.8 nM | > 100 nM | O=C(c1ccccc1)c1ccc2n1CCC2C(=O)NCCOc1ccc2oc(=O)ccc2c1 (racemic) | – | – |
| > 100 nM | > 100 nM | > 100 nM | 31.3 nM | – | COc1ccc2c(c1)c(CC(=O)NCCOc1ccc3oc(=O)ccc3c1)c(C)n2C(=O)c1ccc(Cl)cc1 | Non-Toxic | Activity (Rattus norvegicus [5]): Active; Activity (Rattus norvegicus [4]): Active |
| > 100 nM | > 100 nM | > 100 nM | > 100 nM | – | COc1ccc2cc([C@H](C)C(=O)NCCOc3ccc4ccc(=O)oc4c3)ccc2c1 | – | – |
| > 100 nM | 85.4 nM | > 100 nM | > 100 nM | – | CC(C(=O)NCCOc1ccc2ccc(=O)oc2c1)c1cccc(C(=O)c2ccccc2)c1 (racemic) | Non-Toxic | Activity (Rattus norvegicus [2]): inactive |
| > 100 nM | > 100 nM | > 100 nM | – | – | O=C(Cc1ccccc1Nc1c(Cl)cccc1Cl)NCCOc1ccc2ccc(=O)oc2c1 | Non-Toxic | Activity (Rattus norvegicus [2]): inactive; Ki (Carbonic anhydrase 4): 9.1 nM |
| > 100 nM | > 100 nM | > 100 nM | > 100 nM | > 100 nM | CC(C(=O)NCCOc1ccc2ccc(=O)oc2c1)c1ccc(-c2ccccc2)c(F)c1 (racemic) | Non-Toxic | Activity (Rattus norvegicus [5]): Active; Activity (Rattus norvegicus [4]): Active |
| > 100 nM | > 100 nM | > 100 nM | > 100 nM | 39 nM | CC(C)Cc1ccc(C(C)C(=O)NCCOc2ccc3ccc(=O)oc3c2)cc1 (racemic) | Non-Toxic | Activity (Rattus norvegicus [8]): 63.8 g; Activity (Rattus norvegicus [9]): 61.3 g; Activity (Rattus norvegicus [10]): Active; Activity (Rattus norvegicus [11]): 7.9 g; Activity (Rattus norvegicus [12]): 11.1 g; Activity (Rattus norvegicus [13]): Active; Ki (Carbonic anhydrase 4): 9.1 nM |
| > 100 nM | > 100 nM | > 100 nM | – | – | O=C(Cc1ccccc1Nc1c(Cl)cccc1Cl)NCCOc1ccc2oc(=O)ccc2c1 | – | Ki (Carbonic anhydrase 4): 5.6 nM |

The next lines start with the compound.

| Structure (SMILES) | Ki (Carbonic anhydrase 1) | Ki (Carbonic anhydrase 2) | Ki (Carbonic anhydrase 7) | Ki (Carbonic anhydrase 9) | Ki (Carbonic anhydrase 12) | Activity (Rattus norvegicus [1]) | also measured |
| --- | --- | --- | --- | --- | --- | --- | --- |
| COc1ccc2cc([C@H](C)C(=O)NCCOc3ccc4oc(=O)ccc4c3)ccc2c1 | > 100 nM | > 100 nM | > 100 nM | > 100 nM | > 100 nM | – | – |
| CC(C)Cc1ccc(C(C)C(=O)NCCOc2ccc3oc(=O)ccc3c2)cc1 (stereo not given) | > 100 nM | > 100 nM | > 100 nM | > 100 nM | > 100 nM | – | Ki (Carbonic anhydrase 4): 0.44 nM |
| CC(C(=O)NCCOc1ccc2oc(=O)ccc2c1)c1cccc(C(=O)c2ccccc2)c1 (racemic) | > 100 nM | > 100 nM | > 100 nM | 54.7 nM | > 100 nM | – | – |
| CC(C(=O)NCCOc1ccc2oc(=O)ccc2c1)c1ccc(-c2ccccc2)c(F)c1 (racemic) | > 100 nM | > 100 nM | > 100 nM | – | – | Non-Toxic | Activity (Rattus norvegicus [2]): inactive |
| O=C(c1ccccc1)c1ccc2n1CCC2C(=O)NCCOc1ccc2ccc(=O)oc2c1 (racemic) | > 100 nM | > 100 nM | > 100 nM | > 100 nM | > 100 nM | Non-Toxic | Activity (Rattus norvegicus [5]): Active |
| CC(C)Cc1ccc(C(C)C(=O)O)cc1 (stereo not given) | – | – | – | – | – | – | Activity (Rattus norvegicus [6]): Active; Activity (Rattus norvegicus [7]): Active |
| COc1ccc2c(c1)c(CC(=O)NCCOc1ccc3ccc(=O)oc3c1)c(C)n2C(=O)c1ccc(Cl)cc1 | > 100 nM | > 100 nM | > 100 nM | 20.1 nM | – | Non-Toxic | Activity (Rattus norvegicus [2]): inactive |
| CC1=C(CC(=O)NCCOc2ccc3oc(=O)ccc3c2)c2cc(F)ccc2/C1=C\c1ccc([S+](C)[O-])cc1 (stereo not given) | > 100 nM | > 100 nM | > 100 nM | 30.8 nM | – | – | – |
